Data as given in patent US10800778B2 (Entasis Therapeutics Limited, priority 2016, dated 2020).
Structures can show the parent of a compound that is named as a salt.

Key:
[1] = molecular target: OXA-48 (Class D beta-lactamase) (Klebsiella pneumoniae, UniProt Q6XEC0); test: Inhibition of beta-lactamase enzymes (nitrocefin hydrolysis), OXA-48; format: biochemical; conditions: read-out: Class D OXA-48 60 min IC50, nitrocefin 100 μM
In short: (§1)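 Nitrocefin (100 μM) hydrolysis followed at 490 nm for 1 h in 0.1 M sodium phosphate pH 7.0, 10 mM NaHCO3, 0.005% Triton X-100, with 3-fold inhibitor dilutions from 100 μM to 62.7 pM. Progress curves fitted globally to give kinact/Ki or Ki; percent inhibition from best-fit absorbance fitted with Hill equation.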

[2] = system: E. coli WT (ATCC 25922); test: MIC, CLSI broth microdilution, beta-lactam with or without BLI; format: cell-based; conditions: BLI at fixed 4 μg/ml
Method: (§2) The minimal inhibitory concentration (MIC) values against each organism and drug combination were determined using the Clinical and Laboratory Standards Institute guidelines (CLSI) broth microdilution methodology (CLSI M07-A10). The recommended quality control (QC) bacterial strains E. coli ATCC 25922, E. coli ATCC 35218 and Klebsiella pneumoniae ATCC 700603 were incorporated into each test according to the CLSI guidelines to assure that there was no variation between test dates (CLSI M100-S25). The MICs of these QC strains were within QC range on all test occasions. Drug containing plates were made using the master plate method. A cefpodoxime solution was prepared to 20× concentration and 2-fold serial dilutions were made in cation adjusted Mueller-Hinton Broth. Equal volumes of 20× examplar compounds at a fixed concentration were added to the master plate. 10 uL was stamped into daughter plates using a Tecan EVO robot. Organism suspensions were adjusted to a 0.5 McFarland standard and further diluted to yield a final inoculum between 3×10^5 and 7×10^5 colony-forming units (CFU)/mL. Bacterial inocula were made in sterile, cation adjusted Mueller-Hinton Broth (Beckton Dickinson). An inoculum volume of 1.1× concentration of 90 uL was added to wells (using a Tecan EVO robot). All inoculated microdilution plates were incubated in ambient air at 35° C. for 18-24 hours.
(§3) Following the procedure from Example 103, MICs were determined for several beta-lactams in presence of a fixed concentration (4 μg/mL) of exemplar compounds (Table 3) against 3 Enterobacteriaceae strains.

[3] = system: Klebsiella pneumoniae SHV-18, OXA-2, OKP-6 (ATCC 700603); test: as above; format: cell-based; conditions: BLI at fixed 4 μg/ml; K. pneumoniae ATCC 700603
Method: as §2, §3

[4] = system: C. freundii AmpC, TEM-1, CMY65; test: as above; format: cell-based; conditions: BLI at fixed 4 μg/ml
Method: as §2, §3

[5] = Rat PK, intravenous and oral; format: in vivo, Sprague-Dawley rats; conditions: for AUC: Sprague-Dawley, plasma, rat, IV 10 mg/kg, analyte = compound administered; for Circulating concentrations of the ester in plasma: rat plasma, LC/MS/MS
Method: Intravenous rat pharmacokinetics of exemplar compounds were determined in jugular vein cannulated Sprague-Dawley rats (n=3) (Harlan Laboratories, Indianapolis, Ind.) at a dose of 10 mg/kg. Compounds were dissolved and administered intravenously in 0.9% saline, pH 6.5 at a dose volume of 2 mL/kg. […] Oral pharmacokinetic studies were conducted with exemplar compounds at 10 mg/kg equivalents of carboxylic acids. Doses were dissolved and administered orally in 25:75 PEG400: water for injection, pH 4.5 at a dose volume of 10 mL/kg. […] Plasma samples were stored at −80° C. prior to bioanalysis.
Plasma samples were thawed on ice prior to processing. Samples (30 μL) were diluted and proteins precipitated with 180 μL of acetonitrile containing 0.1% formic acid and 250 ng/mL of carbutamide (N1-(butylcarbanoyl)-sulfanilamide, Sigma-Aldrich Catalog # S385433) as an internal standard. Samples were vortexed for 30 seconds, centrifuged at 3400 g for 10 minutes and the supernatant transferred to injection vials.
LC/MS/MS analysis was completed on an AB Sciex QTrap 6500 mass spectrometer in positive ionization mode, coupled to a Schimadzu Nexera LC system. A Waters Atlantis T3 (3 μm, 3.0×50 mm) column was used for chromatographic separation. Injection volume was […] The mobile phase consisted 0.1% formic acid in water (A) and 0.1% formic acid in acetonitrile (B), with a gradient of 2-98% B:A over two minutes.
Plasma concentration vs. time profiles following intravenous (IV) administration and oral (PO) administration of exemplar compounds were analyzed by non-compartment analysis using WinNonLin 6.4.

[6] = molecular target: TEM-1 (Class A beta-lactamase) (Escherichia coli, UniProt P62593); test: Inhibition of beta-lactamase enzymes (nitrocefin hydrolysis), TEM-1; format: biochemical; conditions: read-out: Class A TEM-1 60 min IC50, nitrocefin 100 μM
In short: as §1

[7] = Stability in pH 7.4 buffer (no enzyme); format: physicochemical; conditions: read-out: T1/2 pH 7.4 Buffer
In short: (§4)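 Esters at 10 μM incubated at 37 °C with 0.8 mg/mL S9 (human intestinal without PMSF, rat liver or rat intestinal) or no enzyme, in 100 mM HEPES pH 7.4; sampled 0–60 min. LC-MS/MS tracked ester and hydrolysed active; first-order T1/2 from ester disappearance.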

[8] = Stability/conversion of esters in rat liver S9; format: in vitro ADME
In short: as §4

[9] = Stability/conversion of esters in human liver S9; format: in vitro ADME
In short: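 Ester test compounds (10 μM) were incubated at 37° C with human liver S9 at 0.8 mg/mL in 100 mM HEPES buffer, pH 7.4. Aliquots taken from 0 to 60 min were quenched in acetonitrile containing carbutamide internal standard, centrifuged, and analyzed by LC-MS/MS MRM; first-order half-lives came from loss of the parent ester.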

[10] = Stability/conversion of esters in human intestinal S9; format: in vitro ADME
In short: as §4

[11] = Stability/conversion of esters in rat intestinal S9; format: in vitro ADME
In short: as §4

[12] = system: E. coli ARC2687 (AmpC, CTX-M-14); test: Mouse neutropenic thigh infection model, oral efficacy of cefpodoxime proxetil with Example 35; format: in vivo
Method: The oral in vivo efficacy of Example 35 was evaluated in combination with cefpodoxime proxetil in a mouse neutropenic thigh infection model versus a relevant clinical isolate. […] CD-1 mice (Charles River, Wilmington US) were housed in shoebox type cages with contact bedding and acclimated to the facility for a minimum of 2 days prior to use. The animal room was maintained at 70° F., with 50+/−10% relative humidity and a 12-hour light/dark cycle. The study was conducted using an IACUC-approved protocol in accordance with Title 9 of the Code of Federal Regulations. Animals were rendered neutropenic with two intraperitoneal doses of cyclophosphamide (150 mg/kg—4 days and 100 mg/kg—1 day prior to infection (Gerber et al. (1983) J Infect Dis 147(5); 910-917)). Animals were infected via an intramuscular challenge of ˜1×10^6 CFU administered within 100 μL of 0.9% saline. The inoculum was prepared from a 25 mL overnight culture of E. coli ARC 2687 in tryptic soy broth media. Following an OD600 determination, the inoculum was diluted in 0.9% saline to a concentration of […] prior to inoculation into the left and right thigh. Oral therapy with cefpodoxime proxetil alone and in combination with Example 35 was initiated 2 hours post bacterial challenge. Doses were suspended in 0.5% HPMC/0.1% Tween 80 and administered by oral gavage at a dose volume of 10 mL/kg. A terminal endpoint was obtained at 24 hr to determine bacterial counts in thigh tissue (CFU/gm). Animals were ethically euthanized, thighs were asceptically removed, weighed and homogenized in 1 mL of saline. Bacterial burden enumeration of tissue homogenate was performed by serial dilution on tryptic soy agar plates which were incubated overnight at 37° C. prior to colony (CFU) counting. The lower limit of detection was ˜2.6 log10 CFU/gm of tissue.

Chain of TEM-1 (Class A beta-lactamase) (P62593 whole entry, looked up, species assumed): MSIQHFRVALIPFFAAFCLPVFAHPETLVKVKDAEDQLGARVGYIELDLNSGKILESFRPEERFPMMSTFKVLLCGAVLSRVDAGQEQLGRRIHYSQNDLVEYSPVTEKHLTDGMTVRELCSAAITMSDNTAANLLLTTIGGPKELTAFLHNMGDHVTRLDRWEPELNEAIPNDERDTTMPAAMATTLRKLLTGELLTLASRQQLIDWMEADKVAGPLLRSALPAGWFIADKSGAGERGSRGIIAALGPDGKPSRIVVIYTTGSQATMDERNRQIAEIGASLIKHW
Chain of OXA-48 (Class D beta-lactamase) (Q6XEC0 whole entry, looked up, species assumed): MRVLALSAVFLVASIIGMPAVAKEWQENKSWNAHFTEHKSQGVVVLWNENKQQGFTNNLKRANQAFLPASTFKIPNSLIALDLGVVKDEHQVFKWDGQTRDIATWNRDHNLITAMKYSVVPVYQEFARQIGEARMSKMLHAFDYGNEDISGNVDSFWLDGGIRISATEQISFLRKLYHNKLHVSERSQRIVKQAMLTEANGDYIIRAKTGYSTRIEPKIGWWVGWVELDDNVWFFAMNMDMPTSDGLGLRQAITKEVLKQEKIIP

## CC1=C[C@@H]2CN(C(=O)N2O[C@@H](F)C(=O)O)[C@@H]1C(N)=O [Example 3, (2S)-{[(2S,5R)-2-carbamoyl-3-methyl-7-oxo-1,6-diazabicyclo[3.2.1]oct-3-en-6-yl]oxy}(fluoro)ethanoic acid lithium salt]
[1]
  IC50: 15 nM
[2]
  MIC of cefixime in presence of BLI: 0.125 µg/mL
  MIC of cefuroxime in presence of BLI: 0.02 µg/mL
  MIC of faropenem in presence of BLI: 0.25 µg/mL
  MIC of tebipenem in presence of BLI: ≤0.06 µg/mL
[3]
  MIC of cefixime in presence of BLI: 0.5 µg/mL
  MIC of faropenem in presence of BLI: 2 µg/mL
  MIC of tebipenem in presence of BLI: 0.125 µg/mL
[4]
  MIC of cefixime in presence of BLI: 1 µg/mL
  MIC of cefuroxime in presence of BLI: 1 µg/mL
  MIC of faropenem in presence of BLI: 0.25 µg/mL
  MIC of tebipenem in presence of BLI: ≤0.06 µg/mL
[5]
  AUC: 34.9 µM·h
[6]
  IC50: 19 nM

## CC1=C[C@@H]2CN(C(=O)N2O[C@H](F)C(=O)O)[C@@H]1C(N)=O [Example 4, (2R)-{[(2S,5R)-2-carbamoyl-3-methyl-7-oxo-1,6-diazabicyclo[3.2.1]oct-3-en-6-yl]oxy}(fluoro)ethanoic acid lithium salt]
[1]
  IC50: 15 nM
[2]
  MIC of cefixime in presence of BLI: ≤0.06 µg/mL
  MIC of cefuroxime in presence of BLI: 0.02 µg/mL
  MIC of faropenem in presence of BLI: ≤0.06 µg/mL
  MIC of tebipenem in presence of BLI: ≤0.06 µg/mL
[3]
  MIC of cefixime in presence of BLI: ≤0.06 µg/mL
  MIC of faropenem in presence of BLI: 1 µg/mL
  MIC of tebipenem in presence of BLI: ≤0.06 µg/mL
[4]
  MIC of cefixime in presence of BLI: ≤0.06 µg/mL
  MIC of cefuroxime in presence of BLI: 0.02 µg/mL
  MIC of faropenem in presence of BLI: ≤0.06 µg/mL
  MIC of tebipenem in presence of BLI: ≤0.06 µg/mL
[5]
  AUC: 19.1 µM·h
[6]
  IC50: 1.35 nM

## CC1=C[C@@H]2CN(C(=O)N2O[C@H](F)C(=O)OC(C)C)[C@@H]1C(N)=O [Example 12, propan-2-yl (2R)-{[(2S,5R)-2-carbamoyl-3-methyl-7-oxo-1,6-diazabicyclo[3.2.1]oct-3-en-6-yl]oxy}(fluoro)ethanoate]
[7]; HEPES buffer without enzyme
  half-life at 10 μM: 3.93 h
[5]
  Circulating concentrations of the ester in plasma: Rapid hydrolysis precluded satisfactory analysis of circulating concentrations
[8]; liver S9, pH 7.4, read-out: T1/2 Rat Liver S9
  half-life at 10 μM: 0.233 h
[9]; liver S9, pH 7.4, read-out: T1/2 Human Liver S9
  half-life at 10 μM: 0.267 h
[10]; intestinal S9 (without PMSF), pH 7.4, read-out: T1/2 Human Intestinal S9
  half-life at 10 μM: 2.2 h
[11]; intestinal S9, pH 7.4, read-out: T1/2 Rat Intestinal S9
  half-life at 10 μM: 3.88 h

## CC1=C[C@@H](C(N)=O)N2C[C@@H]1N(O[C@@H](F)C(=O)O)C2=O [Example 34, (2S)-2-(((2S,5R)-2-carbamoyl-4-methyl-7-oxo-1,6-diazabicyclo[3.2.1]oct-3-en-6-yl)oxy)-2-fluoroacetic acid lithium salt]
[1]
  IC50: 19 nM
[2]
  MIC of cefixime in presence of BLI: ≤0.06 µg/mL
  MIC of cefuroxime in presence of BLI: <0.03125 µg/mL
  MIC of faropenem in presence of BLI: ≤0.06 µg/mL
  MIC of tebipenem in presence of BLI: ≤0.06 µg/mL
[3]
  MIC of cefixime in presence of BLI: ≤0.06 µg/mL
  MIC of cefuroxime in presence of BLI: 1 µg/mL
  MIC of faropenem in presence of BLI: 0.5 µg/mL
  MIC of tebipenem in presence of BLI: ≤0.06 µg/mL
[4]
  MIC of cefixime in presence of BLI: ≤0.06 µg/mL
  MIC of cefuroxime in presence of BLI: <0.03125 µg/mL
  MIC of faropenem in presence of BLI: ≤0.06 µg/mL
  MIC of tebipenem in presence of BLI: ≤0.06 µg/mL
[5]
  AUC: 16.1 µM·h
[6]
  IC50: 26 nM

## CC1=C[C@@H](C(N)=O)N2C[C@@H]1N(O[C@H](F)C(=O)OC(C)C)C2=O [Example 35, (2R)-isopropyl 2-(((2S,5R)-2-carbamoyl-4-methyl-7-oxo-1,6-diazabicyclo[3.2.1]oct-3-en-6-yl)oxy)-2-fluoroacetate]
[7]; buffer
  half-life at 10 μM: 3.1 h
[5]
  Circulating concentrations of the ester in plasma: Rapid hydrolysis precluded satisfactory analysis of circulating concentrations
[8]; s9, pH 7.4, read-out: T1/2 Rat Liver S9
  half-life at 10 μM: 0.533 h
[9]; s9, pH 7.4, read-out: T1/2 Human Liver S9
  half-life at 10 μM: 0.65 h
[10]; s9, pH 7.4, read-out: T1/2 Human Intestinal S9
  half-life at 10 μM: 2.72 h
[11]; s9, pH 7.4, read-out: T1/2 Rat Intestinal S9
  half-life at 10 μM: 4 h
[12]; 50 mg/kg cefpodoxime proxetil + 100 mg/kg Example 35 q6h, oral, 24 hr
  maximal kill relative to initiation of therapy: −0.75 log10 CFU/gm
[12]; Example 35 alone 10 mg/kg PO/q6h, mouse neutropenic thigh, E. coli ARC2687
  log10CFU/gm thigh: 9.56 log10CFU/gm thigh
[12]; Example 35 alone 10 mg/kg PO/q6h, relative to 26 hr growth control
  CFU Change from 26 hr: −1.30 log10 CFU/gm
[12]; Example 35 alone 10 mg/kg PO/q6h, relative to initiation of therapy
  CFU Change from 2 hr: +3.29 log10 CFU/gm
[12]; Example 35 alone at 10 mg/kg q6h, oral, neutropenic CD-1 mice
  growth of bacterial burden in thighs after 24 hours of therapy: greater than 3 log10 CFU/gm
[12]; in combination with cefpodoxime proxetil 50 mg/kg q6h, oral
  effect of increasing dose on bacterial burden: dose dependent reduction of bacterial burden
